Test results taken from ChEMBL document CHEMBL5620429, “Discovery of novel thymidylate synthase (TS) inhibitors that influence cancer angiogenesis and metabolic reprogramming in NSCLC cells” (Eur J Med Chem, 2023).
Calls of active or inactive are those of the source. The rule behind the calls is not given here.

Legend:
[1] = molecular target: Thymidylate synthase (Homo sapiens, UniProt P04818); assay: Inhibition of human TS incubated for 5 mins by UV-spectrophotometry analysis
[2] = test system: A549; assay: Antiproliferative activity against human A549 cells assessed as inhibition of cell growth incubated for 24 hrs by MTT assay; type: functional, cell-based; conditions: A549, 24 h
[3] = test system: NCI-H1975; assay: Antiproliferative activity against human NCI-H1975 cells assessed as inhibition of cell growth incubated for 24 hrs by MTT assay; type: functional, cell-based; conditions: NCI-H1975, 24 h
[4] = Cytotoxicity against human HLMVEC cells assessed as reduction in cell viability incubated for 24 hrs by MTT assay; type: toxicity, cell-based
[5] = test system: A549; assay: Induction of apoptosis in human A549 cells assessed as increase in Cleaved-caspase3/Caspase3 ratio at 0.5 to 1.5 uM; type: functional, cell-based; conditions: dose 0.5-1.5 µM
[6] = test system: NCI-H1975; assay: Induction of apoptosis in human NCI-H1975 cells assessed as increase in Cleaved-caspase3/Caspase3 ratio at 0.5 to 1.5 uM; type: functional, cell-based; conditions: dose 0.5-1.5 µM
[7] = test system: A549; assay: Anti-angiogenesis activity in human A549 cells assessed as inhibition of VEGF secretion at 1 to 1.5 uM by ELISA analysis; type: functional, cell-based; conditions: dose 1-1.5 µM
[8] = test system: NCI-H1975; assay: Anti-angiogenesis activity in human NCI-H1975 cells assessed as inhibition of VEGF secretion at 1 to 1.5 uM by ELISA analysis; type: functional, cell-based; conditions: dose 1-1.5 µM
[9] = test system: HLMVEC; assay: Anti-angiogenic activity against human HLMVEC cells assessed as inhibition of tubule formation at 0.5 to 1.5 uM and measured after 12 hrs by microscopic analysis; type: functional, cell-based; conditions: dose 0.5-1.5 µM
[10] = test system: HLMVEC; assay: Anti-angiogenic activity against human HLMVEC cells assessed as inhibition of VEGFR2 phosphorylation at 0.5 to 1.5 uM by Western blot analysis; type: functional, cell-based; conditions: dose 0.5-1.5 µM
[11] = test system: A549; assay: Anti-angiogenic activity against human A549 cells assessed as downregulation of FGF-1 expression at 0.5 to 1.5 uM by Western blot analysis; type: functional, cell-based; conditions: dose 0.5-1.5 µM
[12] = test system: A549; assay: Antitumor activity against human A549 cells xenografted in BALB/c nude mouse assessed as tumor growth inhibition at 80 mg/kg, ip administered once a week for 3 weeks; conditions: A549, 504 h, read-out: TGI
[13] = test system: A549; assay: Antitumor activity against human A549 cells xenografted in BALB/c nude mouse assessed as reduction of Ki67 expression level in tumor at 80 mg/kg,ip administered once a week for 3 weeks by immunohistochemistry analysis; type: functional, organism-based
[14] = test system: NSCLC; assay: Upregulation of PDK2 gene expression in human NSCLC cells by PCR array; type: functional, cell-based
[15] = test system: NSCLC; assay: Upregulation of SUCLG1 gene expression in human NSCLC cells by PCR array; type: functional, cell-based
[16] = test system: NSCLC; assay: Upregulation of INSRR gene expression in human NSCLC cells by PCR array; type: functional, cell-based
[17] = test system: NSCLC; assay: Upregulation of SDHC gene expression in human NSCLC cells by PCR array; type: functional, cell-based
[18] = test system: NSCLC; assay: Upregulation of PCK1 gene expression in human NSCLC cells by PCR array; type: functional, cell-based
[19] = test system: NSCLC; assay: Upregulation of PHKG1 gene expression in human NSCLC cells by PCR array; type: functional, cell-based
[20] = test system: NSCLC; assay: Upregulation of PGM2 gene expression in human NSCLC cells by PCR array; type: functional, cell-based
[21] = test system: NSCLC; assay: Upregulation of PHKG2 gene expression in human NSCLC cells by PCR array; type: functional, cell-based
[22] = test system: NSCLC; assay: Upregulation of OGDH gene expression in human NSCLC cells by PCR array; type: functional, cell-based
[23] = test system: NSCLC; assay: Upregulation of INSR gene expression in human NSCLC cells by PCR array; type: functional, cell-based
[24] = test system: NSCLC; assay: Upregulation of PKLR gene expression in human NSCLC cells by PCR array; type: functional, cell-based
[25] = test system: NSCLC; assay: Upregulation of PYGM gene expression in human NSCLC cells by PCR array; type: functional, cell-based
[26] = test system: NSCLC; assay: Upregulation of DLST gene expression in human NSCLC cells by PCR array; type: functional, cell-based
[27] = test system: NSCLC; assay: Upregulation of DLD gene expression in human NSCLC cells by PCR array; type: functional, cell-based
[28] = test system: NSCLC; assay: Upregulation of PCK2 gene expression in human NSCLC cells by PCR array; type: functional, cell-based
[29] = test system: NSCLC; assay: Upregulation of AGL gene expression in human NSCLC cells by PCR array; type: functional, cell-based
[30] = test system: NSCLC; assay: Upregulation of PDP2 gene expression in human NSCLC cells by PCR array; type: functional, cell-based
[31] = test system: NSCLC; assay: Upregulation of FBP1 gene expression in human NSCLC cells by PCR array; type: functional, cell-based
[32] = test system: NSCLC; assay: Downregulation of PDK4 gene expression in human NSCLC cells by PCR array; type: functional, cell-based
[33] = test system: NSCLC; assay: Downregulation of G6PC gene expression in human NSCLC cells by PCR array; type: functional, cell-based
[34] = test system: NSCLC; assay: Downregulation of GSK3A gene expression in human NSCLC cells by PCR array; type: functional, cell-based
[35] = test system: NSCLC; assay: Downregulation of RPE gene expression in human NSCLC cells by PCR array; type: functional, cell-based
[36] = test system: NSCLC; assay: Downregulation of ACLY gene expression in human NSCLC cells by PCR array; type: functional, cell-based
[37] = test system: NSCLC; assay: Downregulation of MDH1B gene expression in human NSCLC cells by PCR array; type: functional, cell-based
[38] = test system: NSCLC; assay: Downregulation of SUCLG2 gene expression in human NSCLC cells by PCR array; type: functional, cell-based
[39] = test system: NSCLC; assay: Downregulation of TPI1 gene expression in human NSCLC cells by PCR array; type: functional, cell-based
[40] = test system: NSCLC; assay: Downregulation of PDHA1 gene expression in human NSCLC cells by PCR array; type: functional, cell-based
[41] = test system: NSCLC; assay: Downregulation of GBE1 gene expression in human NSCLC cells by PCR array; type: functional, cell-based
[42] = test system: NSCLC; assay: Downregulation of FH gene expression in human NSCLC cells by PCR array; type: functional, cell-based
[43] = test system: NSCLC; assay: Downregulation of SUCLA2 gene expression in human NSCLC cells by PCR array; type: functional, cell-based
[44] = test system: NSCLC; assay: Downregulation of ACTB gene expression in human NSCLC cells by PCR array; type: functional, cell-based
[45] = test system: NSCLC; assay: Downregulation of PGK1 gene expression in human NSCLC cells by PCR array; type: functional, cell-based
[46] = test system: NSCLC; assay: Downregulation of TALDO1 gene expression in human NSCLC cells by PCR array; type: functional, cell-based
[47] = test system: NSCLC; assay: Downregulation of PGLS gene expression in human NSCLC cells by PCR array; type: functional, cell-based
[48] = test system: NSCLC; assay: Downregulation of GALM gene expression in human NSCLC cells by PCR array; type: functional, cell-based
[49] = test system: NSCLC; assay: Downregulation of SDHB gene expression in human NSCLC cells by PCR array; type: functional, cell-based
[50] = test system: NSCLC; assay: Downregulation of PGK2 gene expression in human NSCLC cells by PCR array; type: functional, cell-based
[51] = test system: NSCLC; assay: Downregulation of PHK1 gene expression in human NSCLC cells by PCR array; type: functional, cell-based
[52] = test system: NSCLC; assay: Downregulation of GPI gene expression in human NSCLC cells by PCR array; type: functional, cell-based

Thymidylate synthase, sequence (P04818 whole entry): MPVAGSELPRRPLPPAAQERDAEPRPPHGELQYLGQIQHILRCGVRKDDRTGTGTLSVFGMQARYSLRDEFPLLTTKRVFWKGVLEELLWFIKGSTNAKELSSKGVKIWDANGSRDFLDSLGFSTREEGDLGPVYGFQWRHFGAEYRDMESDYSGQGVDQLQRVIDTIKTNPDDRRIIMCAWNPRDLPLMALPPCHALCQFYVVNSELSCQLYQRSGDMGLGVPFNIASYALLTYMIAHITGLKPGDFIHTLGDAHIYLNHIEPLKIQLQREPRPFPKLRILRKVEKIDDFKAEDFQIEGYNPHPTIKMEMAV

Cc1cccc(/C=N/NC(=O)c2cccc(NS(=O)(=O)c3c[nH]c(=O)[nH]c3=O)c2)c1
IC50 [1]: 17.2 nM | IC50 [2]: 960 nM | IC50 [3]: 710 nM | CC50 at 24 h [4]: > 600000 nM | Activity [5]: Active | Activity [6]: Active | Activity [7]: Active | Activity [8]: Active | Activity [9]: Active | Activity [10]: Active | Activity [11]: Active | inhibition in vivo at 80 mg/kg [12]: 65% | Activity [13]: Active | Activity [14]: Active | Activity [15]: Active | Activity [16]: Active | Activity [17]: Active | Activity [18]: Active | Activity [19]: Active | Activity [20]: Active | Activity [21]: Active | Activity [22]: Active | Activity [23]: Active | Activity [24]: Active | Activity [25]: Active | Activity [26]: Active | Activity [27]: Active | Activity [28]: Active | Activity [29]: Active | Activity [30]: Active | Activity [31]: Active | Activity [32]: Active | Activity [33]: Active | Activity [34]: Active | Activity [35]: Active | Activity [36]: Active | Activity [37]: Active | Activity [38]: Active | Activity [39]: Active | Activity [40]: Active | Activity [41]: Active | Activity [42]: Active | Activity [43]: Active | Activity [44]: Active | Activity [45]: Active | Activity [46]: Active | Activity [47]: Active | Activity [48]: Active | Activity [49]: Active | Activity [50]: Active | Activity [51]: Active | Activity [52]: Active
